These are literature values, as cited in patent publication US20260101892A1, “METHOD TO INHIBIT PROLIFERATION OF A PHYTOPATHOGEN ON PLANTS AND COMPOSITIONS USED FOR THIS PURPOSE” (CYSBIO APS, priority 2022, published 2026).

SMILES strings stand for the structures. Like-named read-outs stand apart in the source and are kept apart here. Marks after values point to notes of the source that are not given here.

Data set [1] deals with E. coli. The settings on record: cited from earlier work; for Cell adhesion Reduction (%): (compound − control) × 100 / control, negative = reduction; for anti-biofilm activity (cell adhesion): at the concentrations tested by Catto et al. (0.183-1830 μM); for concentrations at which anti-biofilm efficacy is shown: Catto et al., table 1.
In data set [2] the test system is E. coli. The following applies: cited from earlier work; for Planktonic growth A600/min (×10^−3): LB medium, 30° C., 24 hours; for Planktonic growth Reduction (%): (compound − control) × 100 / control, negative = reduction; for biocidal effect: at the concentrations tested by Catto et al. (0.183-1830 μM).

As for `O=C(O)/C=C\c1ccc(O)cc1` [Cis-coumaric acid, cis-coumaric acid], the “Cell adhesion Reduction (%)” value in data set [1] (0.183 μM) is listed as −27.34%; in data set [1] (1.83 μM), −14.39%; in data set [1] (18.3 μM), −4.30%; in data set [1] (183 μM) it was −15.26%; in data set [1] (1830 μM), 184.36%. The “Cell adhesion N. adhered cells (×10^7)” value was 1.39 ± 0.15^abc ×10^7 in data set [1] (0.183 μM); 1.64 ± 0.11^bc ×10^7 in data set [1] (1.83 μM); 1.83 ± 0.14^bc ×10^7 in data set [1] (18.3 μM); 1.62 ± 0.19^bc ×10^7 in data set [1] (183 μM); 5.45 ± 1.00^e ×10^7 in data set [1] (1830 μM). Also, the “anti-biofilm activity (cell adhesion)” value in data set [1] was “strongly reduced anti-biofilm activity”. For the same compound, the “Planktonic growth A600/min (×10^−3)” value in data set [2] (0.183 μM) was 1.29 ± 0.07^a A600/min (×10^−3); in data set [2] (1.83 μM), 1.27 ± 0.05^a A600/min (×10^−3); in data set [2] (18.3 μM) it was 1.27 ± 0.04^a A600/min (×10^−3); in data set [2] (183 μM), 1.28 ± 0.06^a A600/min (×10^−3); in data set [2] (1830 μM) it was 1.25 ± 0.02^a A600/min (×10^−3). For the same compound, the “Planktonic growth Reduction (%)” value in data set [2] (0.183 μM) is 0.30%; in data set [2] (1.83 μM) it was −0.88%; in data set [2] (18.3 μM), −1.26%; in data set [2] (183 μM), −0.16%; in data set [2] (1830 μM), −2.25%. In data set [2], the biocidal effect result was “no biocidal activity”.
Regarding `O=C(O)/C=C/c1ccc(O)cc1` [Trans-coumaric acid, trans-coumaric acid], the “Cell adhesion Reduction (%)” value in data set [1] (0.183 μM) is listed as 19.37%; in data set [1] (1.83 μM), −46.05%; in data set [1] (18.3 μM), −25.80%; in data set [1] (183 μM), −22.36%; in data set [1] (1830 μM), −36.38%. Besides, the “Cell adhesion N. adhered cells (×10^7)” value in data set [1] (0.183 μM) was 2.29 ± 0.16b ×10^7; in data set [1] (1.83 μM), 1.03 ± 0.14ce ×10^7; in data set [1] (18.3 μM) it was 1.42 ± 0.24de ×10^7; in data set [1] (183 μM), 1.49 ± 0.14de ×10^7; in data set [1] (1830 μM), 1.22 ± 0.27cde ×10^7. Further, the “anti-biofilm activity (cell adhesion)” value in data set [1] is “displays both biocidal and antibiofilm effect”. The “Planktonic growth A600/min (×10^−3)” value in data set [2] (0.183 μM) is recorded as 1.31 ± 0.03ab A600/min (×10^−3); in data set [2] (1.83 μM), 1.26 ± 0.04abc A600/min (×10^−3); in data set [2] (18.3 μM), 1.23 ± 0.02abc A600/min (×10^−3); in data set [2] (183 μM), 1.23 ± 0.06abc A600/min (×10^−3); in data set [2] (1830 μM), 0.97 ± 0.04e A600/min (×10^−3). For the same compound, the “Planktonic growth Reduction (%)” value is 2.06% in data set [2] (0.183 μM); −1.72% in data set [2] (1.83 μM); −3.99% in data set [2] (18.3 μM); −3.87% in data set [2] (183 μM); −24.17% in data set [2] (1830 μM). Moreover, in data set [2], the biocidal effect result was “displays both biocidal and antibiofilm effect”.
Regarding `O=C(O)/C=C\c1ccccc1` [Cis-cinnamic acid, cis-cinnamic acid], the “Cell adhesion Reduction (%)” value is 28.52% in data set [1] (0.183 μM); 23.00% in data set [1] (1.83 μM); −29.61% in data set [1] (18.3 μM); 164.82% in data set [1] (183 μM); 183.29% in data set [1] (1830 μM). For the same compound, the “Cell adhesion N. adhered cells (×10^7)” value is recorded as 2.46 ± 0.17^b ×10^7 in data set [1] (0.183 μM); 2.36 ± 0.26^b ×10^7 in data set [1] (1.83 μM); 1.35 ± 0.28^b ×10^7 in data set [1] (18.3 μM); 5.08 ± 0.53^c ×10^7 in data set [1] (183 μM); 5.43 ± 0.76^c ×10^7 in data set [1] (1830 μM). Further, in data set [1], the “anti-biofilm activity (cell adhesion)” value was “promotes biofilm formation at all concentrations tested”. Moreover, the “Planktonic growth A600/min (×10^−3)” value in data set [2] (0.183 μM) is listed as 1.32 ± 0.04^ab A600/min (×10^−3); in data set [2] (1.83 μM), 1.28 ± 0.07^ab A600/min (×10^−3); in data set [2] (18.3 μM) it was 1.30 ± 0.03^ab A600/min (×10^−3); in data set [2] (183 μM), 1.24 ± 0.05^a A600/min (×10^−3); in data set [2] (1830 μM) it was 0.88 ± 0.02^c A600/min (×10^−3). Moreover, the “Planktonic growth Reduction (%)” value in data set [2] (0.183 μM) is reported as 2.71%; in data set [2] (1.83 μM) it was −0.56%; in data set [2] (18.3 μM), 1.27%; in data set [2] (183 μM) it was −3.17%; in data set [2] (1830 μM), −31.64%.
On to `O=C(O)/C=C/c1ccc(OS(=O)(=O)O)cc1` [Trans zosteric acid, trans-zosteric acid], for which the “Cell adhesion Reduction (%)” value in data set [1] (0.183 μM) is 44.59%; in data set [1] (1.83 μM), −19.76%; in data set [1] (18.3 μM), −19.34%; in data set [1] (183 μM), −27.67%; in data set [1] (1830 μM), −70.56%. Besides, the “Cell adhesion N. adhered cells (×10^7)” value in data set [1] (0.183 μM) was 2.77 ± 0.17^d ×10^7; in data set [1] (1.83 μM), 1.54 ± 0.29^c ×10^7; in data set [1] (18.3 μM) it was 1.55 ± 0.19^c ×10^7; in data set [1] (183 μM) it was 1.39 ± 0.13^c ×10^7; in data set [1] (1830 μM) it was 0.56 ± 0.12^a ×10^7. For the same compound, the “concentrations at which anti-biofilm efficacy is shown” value in data set [1] is greater than 1.83 µM. Further, in data set [1] (listed as trans-isomer of zosteric acid), the “anti-biofilm activity (cell adhesion)” value was “highly effective”. Also, the “Planktonic growth A600/min (×10^−3)” value in data set [2] (0.183 μM) is given as 1.32 ± 0.06^a A600/min (×10^−3); in data set [2] (1.83 μM), 1.31 ± 0.04^a A600/min (×10^−3); in data set [2] (18.3 μM), 1.29 ± 0.04^a A600/min (×10^−3); in data set [2] (183 μM) it was 1.30 ± 0.04^a A600/min (×10^−3); in data set [2] (1830 μM), 1.30 ± 0.04^a A600/min (×10^−3). Moreover, the “Planktonic growth Reduction (%)” value in data set [2] (0.183 μM) was 2.86%; in data set [2] (1.83 μM), 1.76%; in data set [2] (18.3 μM), 0.11%; in data set [2] (183 μM), 1.07%; in data set [2] (1830 μM), 1.21%. The biocidal effect result in data set [2] is “no biocidal effect”.
Turning to `O=C(O)/C=C/c1ccccc1` [Trans-cinnamic acid, trans-cinnamic acid], the “Cell adhesion Reduction (%)” value in data set [1] (0.183 μM) is −34.95%; in data set [1] (1.83 μM) it was −38.77%; in data set [1] (18.3 μM) it was −7.37%; in data set [1] (183 μM), −25.03%; in data set [1] (1830 μM), −31.11%. Also, the “Cell adhesion N. adhered cells (×10^7)” value is given as 1.25 ± 0.43^cdef ×10^7 in data set [1] (0.183 μM); 1.17 ± 0.17^cdf ×10^7 in data set [1] (1.83 μM); 1.78 ± 0.10^bcef ×10^7 in data set [1] (18.3 μM); 1.44 ± 0.15^bcdef ×10^7 in data set [1] (183 μM); 1.32 ± 0.28^cdef ×10^7 in data set [1] (1830 μM). Also, in data set [1], the “concentrations at which anti-biofilm efficacy is shown” value is greater than 0.183 µM. For the same compound, the “Planktonic growth A600/min (×10^−3)” value in data set [2] (0.183 μM) was 1.24 ± 0.04^abcd A600/min (×10^−3); in data set [2] (1.83 μM), 1.22 ± 0.01^abcdf A600/min (×10^−3); in data set [2] (18.3 μM), 1.19 ± 0.04^bcdef A600/min (×10^−3); in data set [2] (183 μM), 1.14 ± 0.05^def A600/min (×10^−3); in data set [2] (1830 μM), 0.83 ± 0.02^h A600/min (×10^−3). In addition, the “Planktonic growth Reduction (%)” value was −3.32% in data set [2] (0.183 μM); −4.74% in data set [2] (1.83 μM); −7.58% in data set [2] (18.3 μM); −11.37% in data set [2] (183 μM); −35.10% in data set [2] (1830 μM).
For `O=C(O)/C=C\c1ccc(OS(=O)(=O)O)cc1` [Cis zosteric acid, cis-zosteric acid], the “Cell adhesion Reduction (%)” value in data set [1] (0.183 μM) is 98.02%; in data set [1] (1.83 μM) it was 92.49%; in data set [1] (18.3 μM), 84.50%; in data set [1] (183 μM) it was 9.90%; in data set [1] (1830 μM), 124.16%. Besides, the “Cell adhesion N. adhered cells (×10^7)” value in data set [1] (0.183 μM) is listed as 3.79 ± 0.61^c ×10^7; in data set [1] (1.83 μM), 3.69 ± 0.41^c ×10^7; in data set [1] (18.3 μM), 3.54 ± 0.20^c ×10^7; in data set [1] (183 μM), 2.11 ± 0.14^bd ×10^7; in data set [1] (1830 μM) it was 4.30 ± 1.01^c ×10^7. For the same compound, the “anti-biofilm activity (cell adhesion)” value was “no biocidal nor anti-biofilm activity” in data set [1] and “no activity” in data set [1] (listed as cis-isomer of zosteric acid). In addition, the “Planktonic growth A600/min (×10^−3)” value in data set [2] (0.183 μM) is listed as 1.31 ± 0.13^a A600/min (×10^−3); in data set [2] (1.83 μM), 1.31 ± 0.01^a A600/min (×10^−3); in data set [2] (18.3 μM) it was 1.31 ± 0.03^a A600/min (×10^−3); in data set [2] (183 μM), 1.24 ± 0.03^a A600/min (×10^−3); in data set [2] (1830 μM), 1.22 ± 0.03^a A600/min (×10^−3). For the same compound, the “Planktonic growth Reduction (%)” value in data set [2] (0.183 μM) is recorded as 2.28%; in data set [2] (1.83 μM), 1.66%; in data set [2] (18.3 μM), 2.24%; in data set [2] (183 μM), −3.39%; in data set [2] (1830 μM) it was −4.98%. Further, in data set [2], the biocidal effect result is on record as “no biocidal nor anti-biofilm activity”.
